The target of data set [1] is Histamine H3 receptor (Homo sapiens, UniProt Q9Y5N1). The experiment in a line: Displacement of [3H]N-alpha-methylhistamine from recombinant human histamine H3 receptor expressed in HEK cell membranes after 30 mins by scintillation counting. More on the design: species or system HEK293. (In a radioligand displacement assay an active substance lowers the binding of a labelled ligand.)

For data set [2], the system named is Mus musculus. The experiment in a line: Ex-vivo receptor occupancy in ICR mouse cortex assessed as displacement of [3H]N-alpha-methylhistamine from histamine H3 receptor at 10 mg/kg, po after 4 hrs post dose by scintillation counting. Format: functional.
Data set [3] can be described thus: Drug uptake in rat brain at 10 mg/kg, po after 4 hrs. As to conditions: read-out: Drug uptake. Format: ADME, organism-based. More on the design: dose 10 mg/kg, route oral.
The target in data set [4] is Histamine H3 receptor (Mus musculus, UniProt P58406). Kind of data set: Displacement of [3H]N-alpha-methylhistamine from mouse histamine H3 receptor.
Data set [5] is described as follows: AUC (0 to 6 hrs) in rat at 10 mg/kg, po. Details: time < 6 hr, dose 10 mg/kg, route oral. Format: ADME, organism-based. As to conditions: plasma.
Data set [6] has as its system Mus musculus. Kind of data set: Antiobesity activity in STZ-induced diabetic ICR mouse DIO model assessed as reduction in food intake at 30 mg/kg, po qd for 2 days relative to vehicle-treated control. Particulars: 48 h. Format: functional.
For data set [7], the system named is Mus musculus. Kind of data set: Antidiabetic activity in STZ-induced diabetic ICR mouse DIO model assessed as glucose level at 30 mg/kg, po qd for 2 days. Format: functional.
The subject of data set [8] is Mus musculus. Kind of data set: Antiobesity activity in STZ-induced diabetic ICR mouse DIO model assessed as change in body weight at 30 mg/kg, po qd for 2 days relative to vehicle-treated control. Format: functional.
The target in data set [9] is T1, Cytochrome P450 3A4 (Homo sapiens, UniProt P08684). The experiment in a line: Inhibition of CYP3A4 preincubated with compound. Format: ADME.
Data set [10] concerns the target T2, Cytochrome P450 2D6 (Homo sapiens, UniProt P10635). The experiment in a line: Inhibition of CYP2D6 preincubated with compound. Format: ADME.
Data set [11] deals with T3, Cytochrome P450 2C9 (Homo sapiens, UniProt P11712). The experiment in a line: Inhibition of CYP2C9 preincubated with compound. Format: ADME. Particulars: read-out: INH.
The target in the next data set is hERG (Homo sapiens, UniProt Q12809). Kind of data set: Inhibition of human ERG at 10 uM.
For data set [12], the target named is T1, Cytochrome P450 3A4. The experiment in a line: Inhibition of CYP3A4 co-incubated with compound. Format: ADME.
The target of data set [13] is T2, Cytochrome P450 2D6. The experiment in a line: Inhibition of CYP2D6 co-incubated with compound. Format: ADME.
The target in data set [14] is T3, Cytochrome P450 2C9. Kind of data set: Inhibition of CYP2C9 co-incubated with compound. Format: ADME.
Data set [15] deals with Mus musculus. Kind of data set: Antidiabetic activity in STZ-induced diabetic ICR mouse DIO model at 30 mg/kg, po qd for 2 days. Format: functional, organism-based. Details: dose 30 mg/kg.
Data set [16] has as its system Mus musculus. Kind of data set: Antiobesity activity in STZ-induced diabetic ICR mouse DIO model at 30 mg/kg, po qd for 2 days. Format: functional, organism-based. Details: dose 30 mg/kg.
For data set [17], the system named is Mus musculus. Kind of data set: Ex-vivo receptor occupancy in ICR mouse cortex assessed as displacement of [3H]N-alpha-methylhistamine from histamine H3 receptor at 30 mg/kg, po after 4 hrs post dose by scintillation counting. Format: functional.

pIC50, pKi: −log10 of the molar value. Activity calls are given as the source filed them. The calls are words filed in the database; no cut-off is given here. Where only a bound is given, the exact number is not on record here.

Sequence of Histamine H3 receptor (Homo sapiens, UniProt Q9Y5N1) (Q9Y5N1 whole entry): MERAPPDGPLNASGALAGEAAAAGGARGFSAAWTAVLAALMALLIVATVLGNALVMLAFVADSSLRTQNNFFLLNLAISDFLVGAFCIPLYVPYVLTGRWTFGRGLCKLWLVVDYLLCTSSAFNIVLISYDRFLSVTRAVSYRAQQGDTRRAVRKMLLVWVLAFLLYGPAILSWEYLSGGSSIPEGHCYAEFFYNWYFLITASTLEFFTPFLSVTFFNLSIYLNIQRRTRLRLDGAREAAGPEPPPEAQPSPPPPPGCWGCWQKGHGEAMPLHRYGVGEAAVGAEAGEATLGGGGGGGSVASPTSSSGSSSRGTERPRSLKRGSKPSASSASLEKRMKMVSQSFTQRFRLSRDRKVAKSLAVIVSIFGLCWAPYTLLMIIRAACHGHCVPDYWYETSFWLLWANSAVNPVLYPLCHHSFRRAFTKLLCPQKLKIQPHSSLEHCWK
T1 sequence (P08684 whole entry): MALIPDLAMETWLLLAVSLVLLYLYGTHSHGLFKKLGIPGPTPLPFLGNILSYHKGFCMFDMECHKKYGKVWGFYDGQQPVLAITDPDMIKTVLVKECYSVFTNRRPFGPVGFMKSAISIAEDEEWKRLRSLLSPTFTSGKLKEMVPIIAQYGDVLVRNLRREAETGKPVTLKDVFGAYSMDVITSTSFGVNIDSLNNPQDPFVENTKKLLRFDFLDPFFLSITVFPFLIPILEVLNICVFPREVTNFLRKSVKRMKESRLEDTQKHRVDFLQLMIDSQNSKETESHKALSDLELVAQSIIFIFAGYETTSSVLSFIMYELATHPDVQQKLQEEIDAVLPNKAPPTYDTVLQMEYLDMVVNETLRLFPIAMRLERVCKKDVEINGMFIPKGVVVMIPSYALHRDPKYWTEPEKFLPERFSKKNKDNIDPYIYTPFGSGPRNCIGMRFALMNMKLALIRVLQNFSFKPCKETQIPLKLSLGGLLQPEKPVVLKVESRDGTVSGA
T2 sequence (P10635 whole entry): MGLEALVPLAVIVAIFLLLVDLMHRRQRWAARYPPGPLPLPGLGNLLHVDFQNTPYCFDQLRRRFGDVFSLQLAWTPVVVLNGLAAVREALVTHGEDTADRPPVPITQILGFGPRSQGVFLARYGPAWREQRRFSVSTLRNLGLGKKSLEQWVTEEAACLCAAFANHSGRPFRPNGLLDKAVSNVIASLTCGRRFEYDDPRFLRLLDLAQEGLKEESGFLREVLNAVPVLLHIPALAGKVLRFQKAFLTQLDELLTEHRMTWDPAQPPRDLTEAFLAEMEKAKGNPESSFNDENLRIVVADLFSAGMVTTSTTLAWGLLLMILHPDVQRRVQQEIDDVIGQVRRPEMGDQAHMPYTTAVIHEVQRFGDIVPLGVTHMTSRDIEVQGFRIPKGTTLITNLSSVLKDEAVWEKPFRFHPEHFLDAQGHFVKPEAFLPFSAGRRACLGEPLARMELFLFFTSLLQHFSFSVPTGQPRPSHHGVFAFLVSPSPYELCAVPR
T3 sequence (P11712 whole entry): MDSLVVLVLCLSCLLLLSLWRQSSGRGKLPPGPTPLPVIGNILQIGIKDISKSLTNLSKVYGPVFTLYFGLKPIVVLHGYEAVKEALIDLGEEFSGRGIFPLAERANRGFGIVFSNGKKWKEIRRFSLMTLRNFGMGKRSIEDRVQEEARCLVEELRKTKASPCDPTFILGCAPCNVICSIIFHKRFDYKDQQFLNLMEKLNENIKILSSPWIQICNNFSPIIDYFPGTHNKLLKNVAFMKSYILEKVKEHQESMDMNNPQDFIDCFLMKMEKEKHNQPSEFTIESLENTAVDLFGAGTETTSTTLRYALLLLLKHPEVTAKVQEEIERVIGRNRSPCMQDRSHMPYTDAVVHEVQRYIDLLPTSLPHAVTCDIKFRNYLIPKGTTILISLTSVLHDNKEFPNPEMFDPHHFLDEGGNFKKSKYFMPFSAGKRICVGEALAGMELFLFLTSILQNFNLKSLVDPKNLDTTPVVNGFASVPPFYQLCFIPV
Sequence of Histamine H3 receptor (Mus musculus, UniProt P58406) (P58406 whole entry): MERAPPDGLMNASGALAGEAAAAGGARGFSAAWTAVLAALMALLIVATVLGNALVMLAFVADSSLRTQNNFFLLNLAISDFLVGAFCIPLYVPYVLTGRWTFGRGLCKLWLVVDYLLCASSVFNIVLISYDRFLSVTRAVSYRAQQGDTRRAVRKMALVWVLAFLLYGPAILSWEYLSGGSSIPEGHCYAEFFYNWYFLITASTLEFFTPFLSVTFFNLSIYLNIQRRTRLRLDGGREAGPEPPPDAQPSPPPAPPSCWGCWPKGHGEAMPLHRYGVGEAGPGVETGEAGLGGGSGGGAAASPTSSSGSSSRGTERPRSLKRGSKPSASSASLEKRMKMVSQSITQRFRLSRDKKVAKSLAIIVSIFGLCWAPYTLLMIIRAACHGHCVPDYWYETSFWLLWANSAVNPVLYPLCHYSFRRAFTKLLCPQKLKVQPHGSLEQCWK
Sequence of hERG (Q12809 whole entry): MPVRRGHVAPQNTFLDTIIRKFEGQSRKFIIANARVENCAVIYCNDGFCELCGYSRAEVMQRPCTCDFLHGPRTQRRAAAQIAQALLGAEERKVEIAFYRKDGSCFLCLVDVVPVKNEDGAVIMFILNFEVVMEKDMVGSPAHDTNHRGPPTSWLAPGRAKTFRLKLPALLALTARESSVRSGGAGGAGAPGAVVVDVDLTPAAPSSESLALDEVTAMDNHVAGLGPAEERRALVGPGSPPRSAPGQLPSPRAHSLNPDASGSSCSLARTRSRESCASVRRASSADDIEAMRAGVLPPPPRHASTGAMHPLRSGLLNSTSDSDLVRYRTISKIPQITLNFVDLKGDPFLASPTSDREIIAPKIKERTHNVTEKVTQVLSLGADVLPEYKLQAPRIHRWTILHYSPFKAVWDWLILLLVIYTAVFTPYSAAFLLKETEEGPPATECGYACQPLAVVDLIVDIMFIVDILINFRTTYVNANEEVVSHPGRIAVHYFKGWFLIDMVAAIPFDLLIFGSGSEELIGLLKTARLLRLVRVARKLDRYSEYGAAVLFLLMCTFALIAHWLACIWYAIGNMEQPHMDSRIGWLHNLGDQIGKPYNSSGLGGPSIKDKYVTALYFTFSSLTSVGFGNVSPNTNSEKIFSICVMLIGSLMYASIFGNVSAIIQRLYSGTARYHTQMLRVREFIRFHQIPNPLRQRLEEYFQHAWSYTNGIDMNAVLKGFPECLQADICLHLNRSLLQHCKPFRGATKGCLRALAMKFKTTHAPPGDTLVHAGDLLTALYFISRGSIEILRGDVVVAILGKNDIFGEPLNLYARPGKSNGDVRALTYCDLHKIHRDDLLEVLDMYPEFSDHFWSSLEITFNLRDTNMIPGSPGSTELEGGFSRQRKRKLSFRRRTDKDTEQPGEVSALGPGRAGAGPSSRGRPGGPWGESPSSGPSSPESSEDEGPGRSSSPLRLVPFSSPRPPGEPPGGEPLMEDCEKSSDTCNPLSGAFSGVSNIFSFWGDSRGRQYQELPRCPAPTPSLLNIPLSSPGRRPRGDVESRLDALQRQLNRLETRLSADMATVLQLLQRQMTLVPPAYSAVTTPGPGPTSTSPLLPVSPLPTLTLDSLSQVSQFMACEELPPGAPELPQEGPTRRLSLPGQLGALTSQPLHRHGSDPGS

A word on the pKi: it is the negative decadic logarithm of the Ki, by convention in mol/L. As for `CC(O)c1cccc(-c2nnc(N3CCC(N4CCCCC4)CC3)s2)c1` (centres undefined), the pKi at Histamine H3 receptor [1] is 7.54.

Consider `O=C1Cc2cc(-c3nnc(N4CCC(N5CCCCC5)CC4)s3)ccc2N1`, for which the pKi at Histamine H3 receptor [1] is 7.19.

Turning to `O=c1cccnn1-c1cccc(-c2nnc(N3CCC(N4CCCCC4)CC3)s2)c1`, in the data set with Mus musculus [2], the Occ came to 25%. For the same compound, the pKi on Histamine H3 receptor [1] is 7.92.

Usually AUC(0-t) stands for the area under the concentration-time curve up to a stated or last time point. Read a high AUC(0-t) as high exposure. A word on the inhibition in vivo: it is the percentage by which the read-out fell short of the control. The term inhibition denotes the relative decrease from the control value, in per cent. Regarding `O=c1ccnc2ccc(-c3nnc(N4CCC(N5CCCCC5)CC4)s3)cn12`, the concentration at 4 h in data set [3] worked out at 1340 ng/g. The pKi at Histamine H3 receptor [4] is 7.60; at Histamine H3 receptor [1], 7.89. The AUC(0-t) at 6 h in [5] amounted to 7300 ng·h/mL. Further, in the data set on Mus musculus [2], the Occ was found to be 69%. For the same compound, the inhibition in vivo at 30 mg/kg in the data set on Mus musculus [6] came out at 33.6%. For the same compound, the glucose change in the data set with Mus musculus [7] is -87 mg/dL. The Activity with Mus musculus [8] was -3.02%. The INH at Cytochrome P450 3A4 [9], at Cytochrome P450 2D6 [10], at Cytochrome P450 3A4 [12], at Cytochrome P450 2D6 [13] and at Cytochrome P450 2C9 [14] was above 20 µM each time. Also, the pIC50 at Cytochrome P450 2C9 [11] is below 4.70. Further, at 10 µM the inhibition at hERG was 7%.

As to `c1cnc2c(-c3nnc(N4CCC(N5CCCCC5)CC4)s3)cccc2c1`, the concentration at 4 h in data set [3] came out at 110 ng/g. The result in the data set on Mus musculus [15] and in the data set on Mus musculus [16] was inactive. The results for the pKi at Histamine H3 receptor [4] and on Histamine H3 receptor [1] were 8.14 and 8.34, respectively. In data set [5], the AUC(0-t) at 6 h stood at 530 ng·h/mL. Further, in the data set with Mus musculus [2], the Occ is recorded as 77%.

As to `O=C(c1cccc(-c2nnc(N3CCC(N4CCCCC4)CC3)s2)n1)N1CCC1`, the Occ in the data set on Mus musculus [2] was 6%. Also, the pKi at Histamine H3 receptor [1] is 8.36.

For `CC(=O)c1cccc(-c2nnc(N3CCC(N4CCCCC4)CC3)s2)c1`, the Occ with Mus musculus [17] came out at 62%. Further, the inhibition in vivo at 30 mg/kg in the data set on Mus musculus [6] was 5.61%. The Activity is 7.08 mg/mL in the data set on Mus musculus [7] and -1.01% in the data set on Mus musculus [8]. For the same compound, the INH on Cytochrome P450 3A4 [9], on Cytochrome P450 2D6 [10], on Cytochrome P450 3A4 [12], on Cytochrome P450 2D6 [13] and at Cytochrome P450 2C9 [14] was above 20 µM throughout. For the same compound, on Cytochrome P450 2C9 [11], the pIC50 was below 4.70. This compound displayed an inhibition at 10 µM against hERG of 40%.

For the compound `Cc1nnc2ccc(-c3nnc(N4CCC(N5CCCCC5)CC4)s3)cn12`, in data set [3], the concentration at 4 h amounted to 25 ng/g. For the same compound, the result with Mus musculus [15] and in the data set with Mus musculus [16] was inactive. In addition, the pKi is 8.62 on Histamine H3 receptor [4] and 8.47 on Histamine H3 receptor [1]. For the same compound, in [5], the AUC(0-t) at 6 h turned out to be 1200 ng·h/mL. Moreover, in the data set on Mus musculus [2], the Occ is 34%.

In the case of `O=c1ccoc2ccc(-c3nnc(N4CCC(N5CCCCC5)CC4)s3)cc12`, the concentration at 4 h in data set [3] came out at 268 ng/g. Further, the outcome in the data set on Mus musculus [15] and with Mus musculus [16] was inactive. Besides, the pKi at Histamine H3 receptor [4] is 7.92; at Histamine H3 receptor [1] it was 7.90. In [5], the AUC(0-t) at 6 h is 1300 ng·h/mL. The Occ with Mus musculus [2] worked out at 84%.

For the compound `c1cc(-c2nnc(N3CCC(N4CCCCC4)CC3)s2)n2nccc2c1`, the Occ with Mus musculus [2] is recorded as 22%. Also, the negative-log Ki (pKi) at Histamine H3 receptor [1] is 8.49.

As to `O=C1COc2ccc(-c3nnc(N4CCC(N5CCCCC5)CC4)s3)cc2N1`, the pKi at Histamine H3 receptor [1] was 7.66.

With `Cc1nc2cc(-c3nnc(N4CCC(N5CCCCC5)CC4)s3)ccc2o1`, the pKi on Histamine H3 receptor [1] was 7.61.

For the compound `CN(C)C(=O)c1cccc(-c2nnc(N3CCC(N4CCCCC4)CC3)s2)c1`, the pKi at Histamine H3 receptor [1] is 6.72.

As for `O=c1ccnc2c(-c3nnc(N4CCC(N5CCCCC5)CC4)s3)cccn12`, in data set [3], the concentration at 4 h stood at 2670 ng/g. The result with Mus musculus [15] and in the data set with Mus musculus [16] was inactive. Also, the values for the pKi at Histamine H3 receptor [4] and at Histamine H3 receptor [1] were 8.59 and 8.68, respectively. For the same compound, the AUC(0-t) at 6 h in [5] turned out to be 840 ng·h/mL. For the same compound, the Occ in the data set with Mus musculus [2] is reported as 94%.

On to `Cc1nnc(-c2cccc(-c3nnc(N4CCC(N5CCCCC5)CC4)s3)c2)o1`, for which the concentration at 4 h in [3] was 1290 ng/g. For the same compound, the result with Mus musculus [15] and with Mus musculus [16] was inactive. In addition, the pKi at Histamine H3 receptor [4] is 7.40; on Histamine H3 receptor [1], 7.64. For the same compound, in data set [5], the AUC(0-t) at 6 h was 2500 ng·h/mL. In the data set on Mus musculus [2], the Occ was 46%.

With `O=C(c1cccc(-c2nnc(N3CCC(N4CCCCC4)CC3)s2)c1)N1CCC1`, the pKi on Histamine H3 receptor [1] was 7.10.

Turning to `Cc1cc(=O)c2cc(-c3nnc(N4CCC(N5CCCCC5)CC4)s3)ccc2o1`, the AUC(0-t) at 6 h in data set [5] worked out at 8000 ng·h/mL. Moreover, the pKi on Histamine H3 receptor [1] is 7.08.

As to `O=c1ccc2ccc(-c3nnc(N4CCC(N5CCCCC5)CC4)s3)cc2[nH]1`, the Occ in the data set with Mus musculus [2] turned out to be 2%. At Histamine H3 receptor [1], the pKi was 7.44.

Turning to `c1cc(-c2nnc(N3CCC(N4CCCCC4)CC3)s2)c2ccncc2c1`, in the data set on Mus musculus [2], the Occ came out at 19%. Moreover, at Histamine H3 receptor [1], the pKi was 7.75.

Turning to `CC(=O)Nc1cccc(-c2nnc(N3CCC(N4CCCCC4)CC3)s2)c1`, the pKi on Histamine H3 receptor [1] is 7.78.

For the compound `O=c1ccc2c(-c3nnc(N4CCC(N5CCCCC5)CC4)s3)cccc2[nH]1`, in the data set with Mus musculus [2], the Occ turned out to be 6%. The pKi on Histamine H3 receptor [1] was 7.70.

As for `O=c1ccc2cc(-c3nnc(N4CCC(N5CCCCC5)CC4)s3)ccc2[nH]1`, the Occ in the data set with Mus musculus [2] is recorded as 25%. Moreover, the pKi on Histamine H3 receptor [1] was 8.00.
